According to PMC11932996, “aac(6’)-Iaq, a novel aminoglycoside acetyltransferase gene identified from an animal isolate Brucella intermedia DW0551” (Frontiers in Cellular and Infection Microbiology, 2025):

Tested on: AAC(6’)-Iaq
Type: biochemical, Brucella intermedia

SMILES | Km
NC[C@H]1O[C@H](O[C@H]2[C@H](O)[C@@H](O[C@H]3O[C@H](CO)[C@@H](O)[C@H](N)[C@H]3O)[C@H](N)C[C@@H]2N)[C@H](O)[C@@H](O)[C@@H]1O [kanamycin] | 13.3 ± 9.07 µM
CN[C@@H]1[C@@H](O)[C@@H](O[C@@H]2[C@@H](O)[C@H](O[C@H]3OC(CN)=CC[C@H]3N)[C@@H](N)C[C@H]2N)OC[C@]1(C)O [sisomicin] | 4.33 ± 1.32 µM
NC[C@H]1O[C@H](O[C@H]2[C@H](O[C@@H]3O[C@H](CO)[C@@H](O)[C@H]3O)[C@@H](O)[C@H](N)C[C@@H]2N)[C@H](N)[C@@H](O)[C@@H]1O [ribostamycin] | 10.1 ± 2.45 µM
CCN[C@@H]1C[C@H](N)[C@@H](O[C@H]2OC(CN)=CC[C@H]2N)[C@H](O)[C@H]1O[C@H]1OC[C@](C)(O)[C@H](NC)[C@H]1O [netilmicin] | 3.83 ± 0.34 µM
NCC[C@H](O)C(=O)N[C@@H]1C[C@H](N)[C@@H](O[C@H]2O[C@H](CN)[C@@H](O)[C@H](O)[C@H]2O)[C@H](O)[C@H]1O[C@H]1O[C@H](CO)[C@@H](O)[C@H](N)[C@H]1O [amikacin] | 14.1 ± 0.76 µM
